Measurements taken from patent publication US20140186427A1, “ORODISPERSIBLE FILMS FOR THE MANUFACTURING OF INDIVIDUALISED MEDICINE OR FOR LARGE SCALE PRODUCTION” (TESA LABTEC GMBH, priority 2011, published 2014).
Counter-ions that a name gives are not always drawn.

Key:
[1] = Recrystallisation after printing: polarised microscopy and X-ray diffraction; type: physicochemical; conditions: printed ODF
Excerpt: X-ray diffractograms were collected for the drug-free film, the APIs and the ODFs after the fourth printing process using […], Netherland). Polarised micrographs and scanning electron micrographs were collected for the drug-free film and the ODFs after the fourth printing process using a DMLB microscope (Leica Microsystems, Cambridge, UK) and a LEO 1430 VP (Leo Elektron Microscopy, Cambridge, UK).

[2] = Solubility of the API in the ink (Klucel EX, brilliant blue, ethanol); type: physicochemical; conditions: brilliant blue and ethanol
Excerpt: The ingredients of the ink were Klucel® EX (hydroxypropylcellulose, Ashland, USA), brilliant blue and ethanol.

| Recrystallisation / crystals after the printing process [1] | Solubility in the ink [2] | SMILES |
| --- | --- | --- |
| did not recrystallise | soluble in the ink | C#CCN[C@@H]1CCc2ccccc21 [Rasagiline mesylate] |
| – | forms an ink-suspension | CN1CC(=O)N2[C@H](c3ccc4c(c3)OCO4)c3[nH]c4ccccc4c3C[C@@H]2C1=O [Tadalafil] |
